# According to US20250281457A1, “TREATMENT OR PREVENTION OF DENGUE VIRAL INFECTION” (Janssen Pharmaceuticals, Inc., priority 2022, published 2025):
# Read-outs that look alike come from different tables or passages of the source.
# Assay: Effect of food on plasma pharmacokinetics after single oral dose of SF2a/b (Example 2)
# Format: in vivo, human
# Details: both sexes, human, plasma, oral, 800 mg; for Tmax: read-out: tmax, Median
# Experimental: The effect of food on the pharmacokinetics (PK) of Compound (a) was assessed in healthy participants after a single oral dose of SF2a/b, described in Example 1, administered at different dose levels in a randomized single dose, 2-period crossover study. The effect of food on the PK of Compound (a) was determined at 3 different dose levels (50 mg, 200 mg, and 800 mg) for a standardized breakfast; at one dose level (800 mg) for a high-fat, high-calorie breakfast; at two dose levels (200 mg and 800 mg) for a low-fat, low-calorie breakfast, as well as for a low-fat, high-calorie breakfast. 124 healthy adult participants (male and female, 18 to 55 years of age) were enrolled in this study. The volunteers were divided in six panels, which were organized as follows: • Panel […]: • Treatment D: A single 800-mg dose (4×200-mg tablets) of Compound (a) SF2b in fasted conditions. • Treatment E: A single 800-mg dose (4×200-mg tablets) of Compound (a) SF2b in fed conditions (standardized breakfast). • Treatments D and E (treatment sequence group 1 [n=8]: DE; treatment sequence group 2 [n=8]: ED). Panel 4, n=14: • Treatment F: A single 200-mg dose (1×200-mg tablet) of Compound (a) SF2b in fasted conditions. • Treatment G: A single 200-mg dose (1×200-mg tablet) of Compound (a) SF2b, in fed conditions (standardized breakfast). • Treatments F and G (treatment sequence group 1 [n=7]: FG; treatment sequence group 2 [n=7]: GF). Panel […]: • Treatment H: A single 50-mg dose (1×50-mg tablet) of Compound (a) SF2a in fasted conditions. • Treatment I: A single 50-mg dose (1×50-mg tablet) of Compound (a) SF2a in fed conditions (standardized breakfast). • Treatments H and I (treatment sequence group 1 [n=7]: HI; treatment sequence group 2 [n=7]: IH). Panel 6 (n=16): • Treatment J: single 800-mg dose (4×200-mg tablets) of Compound (a) administered as SF2b in fasted conditions. • Treatment K: single 800-mg dose (4×200-mg tablets) of Compound (a) administered as SF2b in fed conditions (high-fat, high-calorie breakfast). • Treatments J and K (treatment sequence group 1 [n=8]: JK; treatment sequence group 2 [n=8]: KJ). Panel 7 (n=32): • Treatment L: single 800-mg dose (4×200-mg tablets) of Compound (a) administered as SF2b in fed conditions (low-fat, low-calorie breakfast). • Treatment M: single 800-mg dose (4×200-mg tablets) of Compound (a) administered as SF2b in fed conditions (low-fat, high-calorie breakfast). • Treatment L (n=16) or Treatment M (n=16). Panel 8 (n=32): • Treatment N: single 200-mg dose (1×200-mg tablet) of Compound (a) administered as SF2b in fed conditions (low-fat, low-calorie breakfast). • Treatment O: single 200-mg dose (1×200-mg tablet) of Compound (a) administered as SF2b in fed conditions (low-fat, high-calorie breakfast). • Treatment N (n=16) or Treatment O (n=16). Tablets were administered orally, together with approximately 240 mL of non-carbonated water, in fasted or fed conditions. […] On day 1 of all treatments in each panel, the participants had fasted overnight for at least 10 hours before study drug intake. Intake of water was not allowed from 2 hours before and until 2 hours after study drug intake, except for the water used for study drug intake and breakfast. In case of intake in fed conditions, study drug was administered within 10 minutes after completing a standardized breakfast (Treatments E, G, and I), or a high-fat, high-calorie breakfast (Treatment K), a low-fat, low-calorie breakfast (Treatments L and N), or a low-fat, high-calorie breakfast (Treatments M and O). For treatments E, G, and I a standardized breakfast was served, consisting of (or its equivalent) 4 slices of bread, 2 slices of ham or cheese, butter, jelly, and 1 or 2 cups (up to 355 mL) of decaffeinated coffee or tea with milk and/or sugar, if desired (containing approximately: fat: 21 g, carbohydrates: 67 g, proteins: 19 g; total calories: 533 kcal). For treatment K in a high-fat, high-calorie breakfast was served. […]
smiles,measurement,setting,value
COc1cc(NC(C(=O)c2c[nH]c3ccc(OC(F)(F)F)cc23)c2ccc(Cl)cc2OC)cc(S(C)(=O)=O)c1 (stereo not drawn) [Compound (a)],Cmax,"800 mg SF2b, fed, high-fat, high-calorie breakfast, read-out: Cmax, Geometric LS Means Treatment K",4050 ng/mL
same,AUC(0-t),"800 mg SF2b, fed, low-fat, high-calorie breakfast, read-out: AUClast, Geometric LS Means Treatment M",227 µg·h/mL
same,AUC(0-inf),"800 mg SF2b, fed, low-fat, high-calorie breakfast, read-out: AUC∞, Geometric LS Means Treatment M",237 µg·h/mL
same,Cmax,"800 mg SF2b, fed, low-fat, high-calorie breakfast, read-out: Cmax, Geometric LS Means Treatment M",2060 ng/mL
same,AUC(0-t),"800 mg SF2b, fed, low-fat, low-calorie breakfast, read-out: AUClast, Geometric LS Means Treatment L",210 µg·h/mL
same,AUC(0-inf),"800 mg SF2b, fed, low-fat, low-calorie breakfast, read-out: AUC∞, Geometric LS Means Treatment L",221 µg·h/mL
same,Cmax,"800 mg SF2b, fed, low-fat, low-calorie breakfast, read-out: Cmax, Geometric LS Means Treatment L",2060 ng/mL
same,AUC(0-t),"800 mg SF2b, fed, standardized breakfast (Tables 5F, 5H), read-out: AUClast, Geometric LS Means Treatment E",347 µg·h/mL
same,AUC(0-inf),"800 mg SF2b, fed, standardized breakfast (Tables 5F, 5H), read-out: AUC∞, Geometric LS Means Treatment E",341 µg·h/mL
same,Cmax,"800 mg SF2b, fed, standardized breakfast (Tables 5F, 5H), read-out: Cmax, Geometric LS Means Treatment E",3400 ng/mL
same,AUC(0-t),"800 mg SF2b, standardized breakfast, linear mixed effects model (Table 5A), read-out: AUClast, Geometric Mean Treatment E",337 µg·h/mL
same,AUC(0-inf),"800 mg SF2b, standardized breakfast, linear mixed effects model (Table 5A), read-out: AUC∞, Geometric Mean Treatment E",352 µg·h/mL
same,Cmax,"800 mg SF2b, standardized breakfast, linear mixed effects model (Table 5A), read-out: Cmax, Geometric Mean Treatment E",3380 ng/mL
same,AUC(0-t),"Treatment D: single 800 mg (SF2b), fasted, read-out: AUClast, Geo. Mean",133 µg·h/mL
same,AUC(0-t),"Treatment D: single 800 mg (SF2b), fasted, read-out: AUClast, Mean",149 µg·h/mL
same,AUC(0-t),"Treatment D: single 800 mg (SF2b), fasted, read-out: AUClast, Median",138 µg·h/mL
same,AUC(0-inf),"Treatment D: single 800 mg (SF2b), fasted, read-out: AUC∞, Geo. Mean",142 µg·h/mL
same,AUC(0-inf),"Treatment D: single 800 mg (SF2b), fasted, read-out: AUC∞, Mean",160 µg·h/mL
same,AUC(0-inf),"Treatment D: single 800 mg (SF2b), fasted, read-out: AUC∞, Median",144 µg·h/mL
same,Cmax,"Treatment D: single 800 mg (SF2b), fasted, read-out: Cmax, Geo. Mean",1150 ng/mL
same,Cmax,"Treatment D: single 800 mg (SF2b), fasted, read-out: Cmax, Mean",1300 ng/mL
same,Cmax,"Treatment D: single 800 mg (SF2b), fasted, read-out: Cmax, Median",1450 ng/mL
same,half-life,"Treatment D: single 800 mg (SF2b), fasted, read-out: t1/2, term, Geo. Mean (converted)",180 h
same,half-life,"Treatment D: single 800 mg (SF2b), fasted, read-out: t1/2, term, Mean (converted)",194 h
same,half-life,"Treatment D: single 800 mg (SF2b), fasted, read-out: t1/2, term, Median (converted)",179 h
same,Tmax,"Treatment D: single 800 mg (SF2b), fasted",8 h
same,AUC(0-t),"Treatment E: single 800 mg (SF2b), fed, standardized breakfast, read-out: AUClast, Geo. Mean",340 µg·h/mL
same,AUC(0-t),"Treatment E: single 800 mg (SF2b), fed, standardized breakfast, read-out: AUClast, Mean",357 µg·h/mL
same,AUC(0-t),"Treatment E: single 800 mg (SF2b), fed, standardized breakfast, read-out: AUClast, Median",337 µg·h/mL
same,AUC(0-inf),"Treatment E: single 800 mg (SF2b), fed, standardized breakfast, read-out: AUC∞, Geo. Mean",337 µg·h/mL
same,AUC(0-inf),"Treatment E: single 800 mg (SF2b), fed, standardized breakfast, read-out: AUC∞, Mean",348 µg·h/mL
same,AUC(0-inf),"Treatment E: single 800 mg (SF2b), fed, standardized breakfast, read-out: AUC∞, Median",345 µg·h/mL
same,Cmax,"Treatment E: single 800 mg (SF2b), fed, standardized breakfast, read-out: Cmax, Geo. Mean",3400 ng/mL
same,Cmax,"Treatment E: single 800 mg (SF2b), fed, standardized breakfast, read-out: Cmax, Mean",3500 ng/mL
same,Cmax,"Treatment E: single 800 mg (SF2b), fed, standardized breakfast, read-out: Cmax, Median",3510 ng/mL
same,half-life,"Treatment E: single 800 mg (SF2b), fed, standardized breakfast, read-out: t1/2, term, Geo. Mean (converted)",166 h
same,half-life,"Treatment E: single 800 mg (SF2b), fed, standardized breakfast, read-out: t1/2, term, Mean (converted)",176 h
same,half-life,"Treatment E: single 800 mg (SF2b), fed, standardized breakfast, read-out: t1/2, term, Median (converted)",150 h
same,Tmax,"Treatment E: single 800 mg (SF2b), fed, standardized breakfast",6 h
